Test results: US6426355B1, “Heterocyclic carboxamide-containing thiourea inhibitors of herpes viruses containing phenylenediamine group” (American Home Products, priority 1998, dated 2002)
In brackets after ≈: the same amount, converted by molar mass.

Assays:
[1] = system: HCMV recombinant mutant virus (RV145); assay: HCMV microtiter plate assay (beta-glucuronidase reporter); assay type: cell-based, Human Cytomegalovirus; conditions: HCMV in human foreskin fibroblasts
Source text: Ninety-six well plate cultures of human foreskin fibroblasts are infected in the presence of inhibitor compound with a HCMV recombinant mutant virus whose genome contains the prokaryotic beta-glucuronidase gene (Jefferson, R. A., S. M. Burgess, and D. Hirsh. 1986. Beta-glucuronidase from Escherichia coli as a gene fusion marker. Proc. Natl. Acad. Sci. USA 83:8447-8451) whose expression is controlled by a viral promoter. An example of such a virus is RV145 (Jones, T. R., V. P. Muzithras, and Y. Gluzman. 1991. Replacement mutagenesis of the human cytomegalovirus genome: US10 and US11 gene products are nonessential. J. Virol. 65:5860-5872). Since it is under the control of a viral promoter, beta-glucuronidase expression is an indirect indicator of growth and replication of HCMV in this assay. At 96 hours post-infection, the infected cell lysates are prepared (using 50 mM sodium phosphate [pH7.0] containing 0.1% Triton X-100 and 0.1% sarkosyl) and assayed for beta-glucuronidase activity using a substrate for the enzyme which when cleaved yields either a product which can be measured colorimetrically in a spectrophotometer or fluorescently in a microfluorimeter. Examples of such substrates are p-nitrophenyl-beta-D-glucuronide and methylumbelliferylglucuronide, respectively. The presence of an antiviral compound is indicated by the reduced expression of the HCMV genome resident beta-glucuronidase gene, compared to the absence of inhibitor. […] Data from this assay generated using varying amounts of inhibitor compound is also used to estimate the IC50 of an inhibitor compound.

[2] = system: HSV-1; assay: HSV Antiviral (ELISA) assay; assay type: cell-based; conditions: HSV-1 in Vero cells
Method: Vero cells (ATCC #CCL-81) are plated on 96-well tissue culture plates at 3.5×10^4 cells per 100 μl tissue culture DMEM (Dulbecco's modified Eagle media) supplemented with 2% fetal bovine serum (FBS) in each well. After overnight incubation @ 37° C. (in 5% CO2) and 30 minutes prior to infection with HSV-1 (multiplicity of infection equal to 0.006), cells are either untreated, or treated with test compound (multiple concentrations) or reference standard drug control. After approximately 24 hours post-infection incubation @ 37° C. (in 5% CO2), cells are fixed for ELISA assay. The primary antibody is murine anti-HSV glycoprotein D monoclonal primary antibody and the secondary antibody is goat anti-mouse IgG linked to β-galactosidase. Thus the extent of viral replication is determined by assessing β-galactosidase activity by quantifying the generation of the 4-methyl umbelliferone fluorescent cleavage product after addition of the methyl umbelliferyl-β-D-galactoside (Sigma #M1633) substrate on a microfluorimeter (365 nm for excitation and 450 nm for emission). Antiviral activity (IC50) of the test compound is determined by comparing the flourescence obtained in absence of compound to that obtained in the presence of compound.

| SMILES | IC50 (ug/ml) HCMV [1] | IC50 (ug/ml) HSV [2] |
| --- | --- | --- |
| COc1ccccc1CNC(=S)Nc1ccc(NC(=O)c2csnn2)cc1 [Example 650] | 0.05 µg/mL (≈ 0.125 µM) | >10 µg/mL |
| COc1ccccc1CCNC(=S)Nc1ccc(NC(=O)c2csnn2)cc1 [Example 651] | 0.03 µg/mL (≈ 0.0725 µM) | >10 µg/mL |
| COc1ccc(CCNC(=S)Nc2ccc(NC(=O)c3csnn3)cc2)cc1 [Example 652] | 0.03 µg/mL (≈ 0.0725 µM) | >10 µg/mL |
| CN(C)CCCc1cc(NC(=S)Nc2ccc(NC(=O)c3csnn3)cc2)cc(C(F)(F)F)c1 [Example 654] | 0.07 µg/mL (≈ 0.138 µM) | >10 µg/mL |
| O=C(Nc1ccc(NC(=S)NCCSc2ccccc2)cc1)c1csnn1 [Example 655] | 0.01 µg/mL (≈ 0.0241 µM) | >10 µg/mL |
| O=C(Nc1ccc(NC(=S)NCCSc2ccccc2)cc1)c1ccco1 [Example 657] | 0.04 µg/mL (≈ 0.101 µM) | 6 µg/mL (≈ 15.1 µM) |
| O=C(Nc1ccc(NC(=S)NCc2cccc(I)c2)cc1)c1ccco1 [Example 662] | 0.03 µg/mL (≈ 0.0628 µM) | >10 µg/mL |
| O=C(Nc1ccc(NC(=S)NCc2cccc(I)c2)cc1)c1csnn1 [Example 663] | 0.01 µg/mL (≈ 0.0202 µM) | >10 µg/mL |
| O=C(Nc1ccc(NC(=S)NCCOc2cc(Cl)cc(Cl)c2)cc1)c1ccco1 [Example 665] | 0.02 µg/mL (≈ 0.0444 µM) | 5 µg/mL (≈ 11.1 µM) |
| O=C(Nc1ccc(NC(=S)NCCOc2cccc(Cl)c2)cc1)c1ccco1 [Example 667] | 0.03 µg/mL (≈ 0.0721 µM) | 8 µg/mL (≈ 19.2 µM) |
| O=C(Nc1ccc(NC(=S)NCCOc2cccc(Cl)c2)cc1)c1csnn1 [Example 668] | 0.009 µg/mL (≈ 0.0207 µM) | >10 µg/mL |
| O=C(Nc1ccc(NC(=S)NCc2cc(C(F)(F)F)ccc2F)cc1)c1ccco1 [Example 670] | 0.02 µg/mL (≈ 0.0457 µM) | >10 µg/mL |
| O=C(Nc1ccc(NC(=S)NCc2cc(C(F)(F)F)ccc2F)cc1)c1csnn1 [Example 671] | 0.005 µg/mL (≈ 0.011 µM) | >10 µg/mL |
| CN(C)c1cc(CCNC(=S)Nc2ccc(NC(=O)c3csnn3)cc2)cc(C(F)(F)F)c1 [Example 674] | 0.006 µg/mL (≈ 0.0121 µM) | >10 µg/mL |
| O=C(Nc1ccc(NC(=S)NCc2ccc(F)c(F)c2)cc1)c1ccco1 [Example 675] | 0.05 µg/mL (≈ 0.129 µM) | >10 µg/mL |
| O=C(Nc1ccc(NC(=S)NCc2ccc(F)c(F)c2)cc1)c1csnn1 [Example 676] | 0.013 µg/mL (≈ 0.0321 µM) | >10 µg/mL |
| O=C(Nc1ccc(NC(=S)NCCSc2cccc(Br)c2)cc1)c1csnn1 [Example 678] | 0.005 µg/mL (≈ 0.0101 µM) | >10 µg/mL |
| O=C(Nc1ccc(NC(=S)NCCSc2cccc(Br)c2)cc1)c1ccco1 [Example 679] | 0.01 µg/mL (≈ 0.021 µM) | 10 µg/mL (≈ 21 µM) |
| COc1ccc(CCNC(=S)Nc2ccc(NC(=O)c3csnn3)cc2)cc1Br [Example 681] | 0.02 µg/mL (≈ 0.0406 µM) | >10 µg/mL |
| COc1ccc(Br)cc1CCNC(=S)Nc1ccc(NC(=O)c2csnn2)cc1 [Example 682] | 0.006 µg/mL (≈ 0.0122 µM) | >10 µg/mL |
| O=C(Nc1ccc(NC(=S)NCCc2ccccc2Cl)cc1)c1csnn1 [Example 683] | 0.02 µg/mL (≈ 0.0479 µM) | 10 µg/mL (≈ 23.9 µM) |
| O=C(Nc1ccc(NC(=S)NCCc2ccccc2F)cc1)c1csnn1 [Example 684] | 0.005 µg/mL (≈ 0.0125 µM) | 10 µg/mL (≈ 24.9 µM) |

| SMILES | IC50 (ug/ml) HCMV [1] | IC50 (ug/ml) HSV [2] |
| --- | --- | --- |
| O=C(Nc1ccc(NC(=S)NCCc2ccc(Cl)cc2)cc1)c1csnn1 [Example 685] | 0.006 µg/mL (≈ 0.0144 µM) | 10 µg/mL (≈ 23.9 µM) |
| O=C(Nc1ccc(NC(=S)NCCC(c2ccccc2)c2ccccc2)cc1)c1csnn1 [Example 686] | 0.007 µg/mL (≈ 0.0148 µM) | >10 µg/mL |
| O=C(Nc1ccc(NC(=S)NCCOc2cc(Cl)cc(Cl)c2)cc1)c1csnn1 [Example 688] | 0.006 µg/mL (≈ 0.0128 µM) | >10 µg/mL |
| O=C(Nc1ccc(NC(=S)NCc2ccc(F)c(Cl)c2)cc1)c1csnn1 [Example 689] | 0.007 µg/mL (≈ 0.0166 µM) | 7 µg/mL (≈ 16.6 µM) |
| CC(C)(C)c1ccc(CNC(=S)Nc2ccc(NC(=O)c3csnn3)cc2)cc1 [Example 690] | 0.004 µg/mL (≈ 0.0094 µM) | 7 µg/mL (≈ 16.4 µM) |
| Cc1cc(C)cc(CNC(=S)Nc2ccc(NC(=O)c3csnn3)cc2)c1 [Example 691] | 0.008 µg/mL (≈ 0.0201 µM) | >10 µg/mL |
| Cc1cc(CCNC(=S)Nc2ccc(NC(=O)c3csnn3)cc2)ccc1N(C)C [Example 692] | 0.04 µg/mL (≈ 0.0908 µM) | 6 µg/mL (≈ 13.6 µM) |
| O=C(Nc1ccc(NC(=S)NCCOc2ccc(Br)cc2)cc1)c1csnn1 [Example 693] | 0.03 µg/mL (≈ 0.0627 µM) | >10 µg/mL |
| O=C(Nc1ccc(NC(=S)NCCOc2ccc(I)cc2)cc1)c1csnn1 [Example 694] | 0.04 µg/mL (≈ 0.0761 µM) | 10 µg/mL (≈ 19 µM) |
| O=C(Nc1ccc(NC(=S)NCCOc2ccc(Br)cc2)cc1)c1ccco1 [Example 697] | 0.04 µg/mL (≈ 0.0869 µM) | 7 µg/mL (≈ 15.2 µM) |
| O=C(Nc1ccc(NC(=S)NCCOc2ccc(I)cc2)cc1)c1ccco1 [Example 698] | 0.04 µg/mL (≈ 0.0788 µM) | 6 µg/mL (≈ 11.8 µM) |
| O=C(Nc1ccc(NC(=S)Nc2ccc(Cl)c(Cl)c2)cc1)c1cocn1 [Example 699] | 0.016 µg/mL (≈ 0.0393 µM) | >10 µg/mL |
| O=C(Nc1ccc(NC(=S)Nc2cc(Cl)cc(Cl)c2)cc1)c1cscn1 [Example 700] | 0.004 µg/mL (≈ 0.00945 µM) | >10 µg/mL |
| O=C(Nc1ccc(NC(=S)Nc2cc(C(F)(F)F)cc(C(F)(F)F)c2)cc1)c1cscn1 [Example 701] | 0.008 µg/mL (≈ 0.0163 µM) | >10 µg/mL |
| O=C(Nc1ccc(NC(=S)Nc2cc(Cl)cc(Cl)c2)cc1)c1cocn1 [Example 702] | 0.01 µg/mL (≈ 0.0246 µM) | 4 µg/mL (≈ 9.82 µM) |
| O=C(Nc1ccc(NC(=S)NCCOc2ccc(Cl)c(Cl)c2)cc1)c1csnn1 [Example 703] | 0.007 µg/mL (≈ 0.0149 µM) | >10 µg/mL |
| O=C(Nc1ccc(NC(=S)Nc2ccc(Cl)c(Cl)c2)cc1)c1cscn1 [Example 704] | 0.006 µg/mL (≈ 0.0142 µM) | >10 µg/mL |
| O=C(Nc1ccc(NC(=S)Nc2ccc(Cl)c(C(F)(F)F)c2)cc1)c1cscn1 [Example 705] | 0.006 µg/mL (≈ 0.0131 µM) | >10 µg/mL |
| O=C(Nc1ccc(NC(=S)NCCNc2ccccc2)cc1)c1csnn1 [Example 706] | 0.04 µg/mL (≈ 0.1 µM) | >10 µg/mL |
| O=C(Nc1ccc(NC(=S)NCCc2ccc(Cl)cc2Cl)cc1)c1csnn1 [Example 707] | 0.005 µg/mL (≈ 0.0111 µM) | >10 µg/mL |
| O=C(Nc1ccc(NC(=S)NCCc2cccc(C(F)(F)F)c2)cc1)c1csnn1 [Example 708] | 0.005 µg/mL (≈ 0.0111 µM) | >10 µg/mL |
